Data from patent US9376442B2, “Methylpyrrolopyrimidinecarboxamides” (Takeda GmbH, priority 2009, dated 2016).

Target: T1, PDE5A1 (Homo sapiens, UniProt O76074)
T1 construct: from tissue; host or cells: human platelets from fresh donor blood (10,000 x g supernatant of sonicated lysate)
Test: Inhibition of type 5 phosphodiesterase (PDE5) activity, modified SPA test with human platelet lysate
Assay type: biochemical
Details: 0.5 μM cGMP, read-out: PDE5A1 inhibitory values [measured as −log IC50 (mol/l)] (converted)
Procedure, shortened: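 Enzyme source is lysate from human platelets (10,000 g supernatant). Compound preincubated 5 min at 37° C in Tris pH 7.4 containing 1 μM motapizone and 10 nM of a PDE2 inhibitor. Reaction started with 0.5 μM cGMP ([3H] tracer) and run 15 min; SPA read-out, IC50 by non-linear regression.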

IC50 [nM] | SMILES
< 1 | Cc1[nH]c2c(-c3c(OCC4CC4)ccc4c3OCO4)ncnc2c1C(=O)N[C@@H]1CN(C(=O)CO)C[C@H]1O (relative stereo) [Example F9, 4-[5-(Cyclopropylmethoxy)-1,3-benzodioxol-4-yl]-N-[(3R*,4R*)-1-glycoloyl-4-hydroxypyrrolidin-3-yl]-6-methyl-5H-pyrrolo[3,2-d]pyrimidine-7-carboxamide]
< 1 | Cc1[nH]c2c(-c3ccc(F)cc3OCC3CC3)ncnc2c1C(=O)N[C@H]1CC[C@H](NC(=O)CO)CC1 [Example F13, 4-[2-(Cyclopropylmethoxy)-4-fluorophenyl]-N-[trans-4-(glycoloylamino)cyclohexyl]-6-methyl-5H-pyrrolo[3,2-d]pyrimidine-7-carboxamide]
1 to 10 | Cc1[nH]c2c(-c3cc(F)ccc3OCC3CC3)ncnc2c1C(=O)N[C@@H]1CCN(C(=O)CO)C[C@H]1O (relative stereo) [Example F30, 4-[2-(Cyclopropylmethoxy)-5-fluorophenyl]-N-[(3R*,4R*)-3-hydroxy-1-(hydroxyacetyl)piperidin-4-yl]-6-methyl-5H-pyrrolo[3,2-d]pyrimidine-7-carboxamide]
< 1 | Cc1[nH]c2c(-c3c(OCC4CC4)ccc4c3OCO4)ncnc2c1C(=O)N[C@@H]1CCN(C(=O)CO)C1 [Example F7, 4-[5-(Cyclopropylmethoxy)-1,3-benzodioxol-4-yl]-N-[(3R)-1-glycoloylpyrrolidin-3-yl]-6-methyl-5H-pyrrolo[3,2-d]pyrimidine-7-carboxamide]
< 1 | CCOc1ccc(C(F)(F)F)cc1-c1ncnc2c(C(=O)NC3CCN(C(=O)[C@H](C)O)CC3)c(C)[nH]c12 [Example F64, 4-[2-Ethoxy-5-(trifluoromethyl)phenyl]-N-{1-[(2S)-2-hydroxypropanoyl]piperidin-4-yl}-6-methyl-5H-pyrrolo[3,2-d]pyrimidine-7-carboxamide]
< 1 | COc1cc(-c2ncnc3c(C(=O)N[C@@H]4CCN(C(=O)[C@H](C)O)C4)c(C)[nH]c23)c(OCC2CC2)cc1F [Example F112, 4-[2-(Cyclopropylmethoxy)-4-fluoro-5-methoxyphenyl]-N-{(3R)-1-[(2S)-2-hydroxypropanoyl]pyrrolidin-3-yl}-6-methyl-5H-pyrrolo[3,2-d]pyrimidine-7-carboxamide]
< 1 | COc1cc(-c2ncnc3c(C(=O)N[C@@H]4CCN(C(=O)CO)C[C@H]4O)c(C)[nH]c23)c(OCC2CC2)cc1F (relative stereo) [Example F71, 4-[2-(Cyclopropylmethoxy)-4-fluoro-5-methoxyphenyl]-N-[(3R*,4R*)-1-glycoloyl-3-hydroxypiperidin-4-yl]-6-methyl-5H-pyrrolo[3,2-d]pyrimidine-7-carboxamide]
< 1 | COc1cc(-c2ncnc3c(C(=O)N[C@@H]4CN(C(=O)[C@H](C)O)C[C@H]4O)c(C)[nH]c23)c(OCC2CC2)cc1F (relative stereo) [Example F114, 4-[2-(Cyclopropylmethoxy)-4-fluoro-5-methoxyphenyl]-N-{(3R*,4R*)-4-hydroxy-1-[(2S)-2-hydroxypropanoyl]pyrrolidin-3-yl}-6-methyl-5H-pyrrolo[3,2-d]pyrimidine-7-carboxamide]

The remaining lines, values behind:

SMILES | IC50 [nM]
CCC(=O)N[C@H]1CC[C@H](NC(=O)c2c(C)[nH]c3c(-c4cc(F)c(OC)cc4OCC4CC4)ncnc23)CC1 [Example E136, 4-[2-(Cyclopropylmethoxy)-5-fluoro-4-methoxyphenyl]-6-methyl-N-[trans-4-(propionylamino)cyclohexyl]-5H-pyrrolo[3,2-d]pyrimidine-7-carboxamide] | < 1
COc1cc(OCC2CC2)c(-c2ncnc3c(C(=O)N[C@@H]4CN(C(C)=O)C[C@H]4O)c(C)[nH]c23)cc1F (relative stereo) [Example E189, N-[(3R*,4R*)-1-Acetyl-4-hydroxypyrrolidin-3-yl]-4-[2-(cyclopropylmethoxy)-5-fluoro-4-methoxyphenyl]-6-methyl-5H-pyrrolo[3,2-d]pyrimidine-7-carboxamide] | < 1
CCOC(=O)N[C@H]1CC[C@@H](NC(=O)c2c(C)[nH]c3c(-c4cc(F)c(OC)cc4OCC4CC4)ncnc23)CC1 [Example E141, Ethyl {cis-4-[({4-[2-(cyclopropylmethoxy)-5-fluoro-4-methoxyphenyl]-6-methyl-5H-pyrrolo[3,2-d]pyrimidin-7-yl}carbonyl)amino]cyclohexyl}carbamate] | < 1
CCC(=O)N[C@H]1CC[C@@H](NC(=O)c2c(C)[nH]c3c(-c4cc(OC)c(F)cc4OCC4CC4)ncnc23)CC1 [Example E111, 4-[2-(Cyclopropylmethoxy)-4-fluoro-5-methoxyphenyl]-6-methyl-N-[cis-4-(propionylamino)cyclohexyl]-5H-pyrrolo[3,2-d]pyrimidine-7-carboxamide] | < 1
COCC(=O)N1C[C@@H](O)[C@H](NC(=O)c2c(C)[nH]c3c(-c4cc(OC)ccc4OCC4CC4)ncnc23)C1 (relative stereo) [Example E194, 4-[2-(Cyclopropylmethoxy)-5-methoxyphenyl]-N-[(3R*,4R*)-4-hydroxy-1-(methoxyacetyl)pyrrolidin-3-yl]-6-methyl-5H-pyrrolo[3,2-d]pyrimidine-7-carboxamide] | 1 to 10
CCC(=O)N1CC[C@@H](NC(=O)c2c(C)[nH]c3c(-c4cc(OC)ccc4OCC4CC4)ncnc23)[C@H](O)C1 (relative stereo) [Example E79, 4-[2-(Cyclopropylmethoxy)-5-methoxyphenyl]-N-[(3R*,4R*)-3-hydroxy-1-propanoylpiperidin-4-yl]-6-methyl-5H-pyrrolo[3,2-d]pyrimidine-7-carboxamide] | < 1
CCOC(=O)N1CCC(NC(=O)c2c(C)[nH]c3c(-c4cc(F)c(OC)cc4OCC4CC4)ncnc23)CC1 [Example E134, Ethyl 4-[({4-[2-(cyclopropylmethoxy)-5-fluoro-4-methoxyphenyl]-6-methyl-5H-pyrrolo[3,2-d]pyrimidin-7-yl}carbonyl)amino]piperidine-1-carboxylate] | < 1
COCC(=O)N1CCC(NC(=O)c2c(C)[nH]c3c(-c4cc(C(C)=O)ccc4OCC4CC4)ncnc23)CC1 [Example E165, 4-[5-Acetyl-2-(cyclopropylmethoxy)phenyl]-N-[1-(methoxyacetyl)piperidin-4-yl]-6-methyl-5H-pyrrolo[3,2-d]pyrimidine-7-carboxamide] | < 1
CCC(=O)N[C@H]1CC[C@H](NC(=O)c2c(C)[nH]c3c(-c4cc(C)c(F)cc4OCC4CC4)ncnc23)CC1 [Example E123, 4-[2-(Cyclopropylmethoxy)-4-fluoro-5-methylphenyl]-6-methyl-N-[trans-4-(propanoylamino)cyclohexyl]-5H-pyrrolo[3,2-d]pyrimidine-7-carboxamide] | < 1
COc1cc(-c2ncnc3c(C(=O)N[C@H]4CC[C@H](NC(C)=O)CC4)c(C)[nH]c23)c(OCC2CC2)cc1F [Example E106, N-(trans-4-Acetamidocyclohexyl)-4-[2-(cyclopropylmethoxy)-4-fluoro-5-methoxyphenyl]-6-methyl-5H-pyrrolo[3,2-d]pyrimidine-7-carboxamide] | < 1
COCC(=O)N1CC[C@@H](NC(=O)c2c(C)[nH]c3c(-c4cc(F)ccc4OCC4CC4)ncnc23)[C@H](O)C1 (relative stereo) [Example E51, 4-[2-(Cyclopropylmethoxy)-5-fluorophenyl]-N-[(3R*,4R*)-3-hydroxy-1-(methoxyacetyl)piperidin-4-yl]-6-methyl-5H-pyrrolo[3,2-d]pyrimidine-7-carboxamide] | 1 to 10
COCC(=O)N1CC[C@@H](NC(=O)c2c(C)[nH]c3c(-c4cc(OC)c(F)cc4OCC4CC4)ncnc23)[C@H](O)C1 (relative stereo) [Example E115, 4-[2-(cyclopropylmethoxy)-4-fluoro-5-methoxyphenyl]-N-[(3R*,4R*)-3-hydroxy-1-(methoxyacetyl)piperidin-4-yl]-6-methyl-5H-pyrrolo[3,2-d]pyrimidine-7-carboxamide] | < 1
CC(=O)N1CC[C@@H](NC(=O)c2c(C)[nH]c3c(-c4cc(C)c(F)cc4OCC4CC4)ncnc23)[C@H](O)C1 (relative stereo) [Example E128, N-[(3R*,4R*)-1-Acetyl-3-hydroxypiperidin-4-yl]-4-[2-(cyclopropylmethoxy)-4-fluoro-5-methylphenyl]-6-methyl-5H-pyrrolo[3,2-d]pyrimidine-7-carboxamide] | < 1
CCC(=O)N[C@H]1CC[C@@H](NC(=O)c2c(C)[nH]c3c(-c4cc(F)c(OC)cc4OCC4CC4)ncnc23)CC1 [Example E139, 4-[2-(Cyclopropylmethoxy)-5-fluoro-4-methoxyphenyl]-6-methyl-N-[cis-4-(propionylamino)cyclohexyl]-5H-pyrrolo[3,2-d]pyrimidine-7-carboxamide] | < 1
COc1cc(OCC2CC2)c(-c2ncnc3c(C(=O)N[C@H]4CC[C@H](NC(C)=O)CC4)c(C)[nH]c23)cc1F [Example E135, N-(trans-4-Acetamidocyclohexyl)-4-[2-(cyclopropylmethoxy)-5-fluoro-4-methoxyphenyl]-6-methyl-5H-pyrrolo[3,2-d]pyrimidine-7-carboxamide] | < 1
CCOC(=O)N1CCC(NC(=O)c2c(C)[nH]c3c(-c4cc(OC)c(F)cc4OCC4CC4)ncnc23)CC1 [Example E105, Ethyl 4-[({4-[2-(cyclopropylmethoxy)-4-fluoro-5-methoxyphenyl]-6-methyl-5H-pyrrolo[3,2-d]pyrimidin-7-yl}carbonyl)amino]piperidine-1-carboxylate] | < 1
CCC(=O)N[C@H]1CC[C@@H](NC(=O)c2c(C)[nH]c3c(-c4c(OCC5CC5)ccc5c4OCO5)ncnc23)CC1 [Example E10, 4-[5-(Cyclopropylmethoxy)-1,3-benzodioxol-4-yl]-6-methyl-N-[cis-4-(propionylamino)cyclohexyl]-5H-pyrrolo[3,2-d]pyrimidine-7-carboxamide] | < 1
